Laboratory results as given in patent US10429393B2, “Tumor deconstruction platform for the analysis of intra-tumor heterogeneity” (NATIONAL CENTRE FOR CELL SCIENCE, priority 2014, dated 2019).

Assays:
[1] = tested on: A4 serous ovarian adenocarcinoma xenografts; assay: Flow cytometric resolution of residual tumour composition (proliferative hierarchy, ploidy, cell cycle; 18 fractions) after therapy; assay type: in vivo, mice; conditions: for drug sensitive tumour populations (cell targets): individual treatments, grid of FIG. 9
Protocol: FIG. 8 represents data discussed in Example 3. a. Schematic of paclitaxel administration regime; b. Frequency (±SEM) of tumor fractions based on proliferative hierarchy, ploidy and cell cycle analysis in control and paclitaxel treated where populations 1-18 are as depicted in FIG. 6b, inset indicates frequency of cycling CSCs, 18a-PKH^hi Eu G0, 18b-PKH^hi Eu G1,18c-PKH^hi Eu S, 18d-PKH^hi Eu G2/M, 18e-PKW^hi Aneu G0, 18f-PKH^hi Aneu G1, 18g-PKH^hiAneu S, 18h-PKW^hi Aneu G2/M;*−P<0.05; **−P<0.001; ***−P<0.0001.
FIG. 9 represents the efficacy of various drug regimes through resolution of residual tumor composition after therapy in comparison with a naïve (untreated) tumor for following drug regimes—Pac ST (paclitaxel short-term: 3 doses—48 h intervals—1 week recovery), Pac LT (paclitaxel long-term, 2 cycles of ST regime); Gem ST (gemcitabine short-term, 3 doses—36 h intervals—36 h recovery), Gem LT (gemcitabine long-term, 5 doses—36 h intervals—36 h recovery); 5AzadC (3 doses—48 h intervals—1 week recovery); mAbX (6 doses of an uncharacterised antibody developed in the Bapat lab—48 h intervals—48 h recovery); Gem+mAbX ST combination therapy (3 doses of each drug—48 h intervals—48 h recovery), Gem+mAbX LT combination therapy (2 cycles each comprising of 3 doses of each drug—48 h intervals—1 week recovery); triple drug combination of gemcitabine, mAbX and 5AzadC LT (6 therapeutic cycles, each comprising of 3 doses of each drug at 48 h intervals and 1 week recovery); populations 1-18 and 18a-18h are as defined in FIGS. 6b and 8 respectively.
Standard techniques are used in the process that is illustrative rather than limiting; other common methods are acceptable in the practice of this invention. Tumor tissues were rinsed several times with phosphate buffered saline (PBS) containing antibiotic and/or anti-fungal agents, finely minced and suspended in basal media supplemented with cell dissociation agent(s) with intermittent pipetting to loosen cell aggregates. Various combinations of dissociation agents can be used depending on the tumor type and appearance and including but not being limited to EDTA, EGTA, cocktails of enzymes including trypsin, dispases, collagenases, DNAse, and the like. On dispersion of tumor cell aggregates, enzymatic activity is usually terminated by addition of serum, cells pelleted by centrifugation and washed several times with basal medium and filtered through cell strainers to obtain a single cell suspension. Cell lines are harvested as per established guidelines to obtain a single cell suspension. […] Labeled cells are xenografted in immunocompromised mice, which could be either nude, SCID, Beige/SCID, NOD/SCID, Rag-/Rag-, humanised mice models, or any known experimental xenograft animal model. Control tumors were concurrently generated using unlabeled cells. Xenografts were harvested as per animal experimental protocols and digested to generate single cell suspension from which the different sub-populations were resolved through flow cytometry.
Basic cell parameters FSC and SSC were adjusted with ND filter 1.5/2 with appropriate FSC and SSC thresholds. Cell debris was eliminated based on low FSC—low SSC, doublets using Area—width parameters and RBCs based on nuclear Propidium iodide (PI) staining. PI excitation/emission maxima are at 535/617 nm (PE channel of blue laser used for analysis). Freshly labeled cells are used to set the gates for VMF^hi cells, while TDSCS from unlabeled tumors was used in order to set the gates for VMF^neg cells. Other fluorophores including Hoechst (UV laser), Pyronin Y (PE channel of blue laser), APC (red laser) and others can be incorporated into this scheme based on their compatibility and resolution capabilities of the flow equipment used for data acquisition and/or sorting as per experimental requirements.
G0/G1, S and G2/M (as illustrated in FIG. 3) provides information regarding the proliferative capability of a tumor. […]

[2] = tested on: A4 serous ovarian adenocarcinoma xenografts; assay: Tumour volume of A4 xenografts after drug regime; assay type: in vivo, mice; conditions: paclitaxel i.p. 25 mg/kg body weight; at the end of the regime
[3] = paclitaxel treated vs control, FIG. 8b

| SMILES | drug sensitive tumour populations (cell targets) [1] | reduction in tumor volumes [2] | CSC re-entry into the cell cycle (cycling populations within PKH^hi fraction) ([1]; after therapy vs naive tumor, FIG. 8b inset, FIG. 9) | frequency of aneuploid progenitor cells ([1]; following paclitaxel treatment vs control) | PKH^hi (CSC) fraction [1, 3] | PKH^neg fraction [1, 3] |
| --- | --- | --- | --- | --- | --- | --- |
| Nc1ncn([C@H]2C[C@H](O)[C@@H](CO)O2)c(=O)n1 [5 AzadC, 5AzadC] | effective against aneuploid fractions | – | – | – | – | – |
| Nc1ccn([C@@H]2O[C@H](CO)[C@@H](O)C2(F)F)c(=O)n1 [gemcitabine] | effective in short-term sensitization of all populations within the PKH^neg fraction | – | – | – | – | – |
| CC(=O)O[C@H]1C(=O)[C@@]2(C)[C@H]([C@H](OC(=O)c3ccccc3)[C@]3(O)C[C@H](OC(=O)[C@H](O)[C@@H](NC(=O)c4ccccc4)c4ccccc4)C(C)=C1C3(C)C)[C@]1(OC(C)=O)CO[C@@H]1C[C@@H]2O [paclitaxel] | – | 50% | presence of cycling populations that have undergone less than 3-4 doublings within the PKH^hi fraction | Increased frequency of aneuploid progenitor cells | enhanced PKH^hi (CSC) fraction | decreased PKH^neg fraction |
